# Results: patent US8940701B2, “Compounds for, and methods of, treating cancer and inhibiting invasion and metastases” (The Regents of the University of Michigan, priority 2009, dated 2015)
# Values joined by “and” are separate entries in the source; they are usually repeats but may differ in a detail not shown here. Identical values can stand only once. Like-named read-outs stand apart in the source and are kept apart here. Bridge positions count the residues as written; N and C are the ends. Square brackets hold non-standard residues; d marks the D form. Peptide text beside a SMILES is read from it. I, II: the chains in the order shown.
# Columns and labels:
# [1] = test system: metastatic human breast (SUM 52 PE) and prostate (DU 145) cancer cell lines, human microvascular cells (hmvec); assay type: cell-based; settings: for fold more potent than the unmodified PHSCN: SUM 52 PE and DU 145 invasion
# Experimental: Some of the examples below employ an invasion assay utilizing naturally occurring basement membranes from 72 hour sea urchin embryos. Breast and prostate cancer invasion was induced with serum; hmvec invasion was induced with the PHSRN sequence of the plasma fibronectin (pFn) cell binding domain. The assay is described in U.S. Pat. No. 6,001,965, hereby incorporated by reference.
# In this example, PHSCN peptides, where the sulfur of the SH group of cysteine was modified to block disulfide bond formation, were tested in an in vitro invasion assay utilizing naturally occurring basement membranes. More specifically, the invasion-inhibiting potencies of S-methylated and S-acetylated derivatives of the PHSCN (SEQ ID NO:1) peptide [i.e. Ac-PHSC(S—CH3)N—NH2 (SEQ ID NO:3) and Ac-PHSC(S—COCH3)N—NH2, (SEQ ID NO:4), respectively] were quantitated [in comparison with PHSCN (SEQ ID NO:1) dimerized by S—S bond formation] with two types of metastatic human cancer cell lines, i.e. a breast cell line (SUM 52 PE) and a prostate cell line (DU 145) (see FIG. 1 and FIG. 2, respectively). These modified peptides prevent breast cancer and prostate cancer invasion at concentrations in the pg/ml range.
# In this example, PHSCN peptides, where two L-amino acids are substituted with D-amino acids, were tested in an in vitro invasion assay utilizing naturally occurring basement membranes. More specifically, the invasion-inhibiting potencies of Ac-PHScN—NH2 (SEQ ID NO:7), and Ac-PhScN—NH2 (SEQ ID NO:8) were quantitated [in comparison with Ac-PHSCN—NH2 (SEQ ID NO:12) as well as a scrambled peptide Ac-HSPNC—NH2 (SEQ ID NO:15)] with two types of metastatic human cancer cell lines, i.e. a breast cell line (SUM 52 PE) and a prostate cell line (DU 145) (see FIG. 3 and FIG. 4, respectively), as well as human microvascular cells (“hmvec”) (see FIG. 5). These modified peptides prevent breast cancer and prostate cancer invasion at concentrations in the pg/ml range.
# Table I compares IC50's of Ac-PHSCN—NH2 (“PHSCN”) (SEQ ID NO:12), Ac-PhScN—NH2 (SEQ ID NO:8) (“PhScN”), Ac-PHScN—NH2 (SEQ ID NO:7) (“PHScN”), and the S-methylated and S-acetylated PHSCN derivatives [Ac-PHSC(S-Me)N—NH2 (SEQ ID NO:3) and Ac-PHSC(S—COCH3)N—NH2 (SEQ ID NO:4)]. The IC50 for PhScN is over 10,000-fold lower than that for PHSCN.
# α5β1 integrin [2] = target: T1, α5β1 integrin (Homo sapiens, UniProt P08648); assay: competition with biotinylated PHSCN binding in SUM149PT cell extracts (blot); settings: PhScN:PHSCN ratios 0:1, 1:1, 10:1, 50:1
# Excerpt: In this experiment, biotinylated PHSCN peptide (Ac-PHSCNGGK(Bio)-NH2) (SEQ ID NO:18) was mixed with varying amounts of unlabeled Ac-PhScN—NH2 (SEQ ID NO:8). The mixed peptides were bound to detergent extracts of SUM149PT cells. A denaturing, non-reducing gel was run, blotted, and reacted with anti biotin primary antibody (FIG. 7). PhScN:PHSCN ratios were 0:1, 1:1, 10:1, or 50:1, as shown in lanes 2-5, respectively. Lane 1 contains the biotinylated α5β1 control. […] Thus, it is likely to interact with the same target site on α5 integrin as the PHSCN peptide. Alternatively PhScN binding could produce a structural or conformational change in the α5 subunit, such as a change in disulfide bonding pattern, that prevents binding of biotinylated PHSCN.
# DU 145 prostate cancer = assay: subcutaneous DU 145 tumors in nude mice, systemic therapy; assay type: in vivo, athymic nude mice
# Experimental: In this example, PHSCN peptides, where two L-amino acids are substituted with D-amino acids, were tested in vivo. FIG. 6 compares the antitumorigenic effects of systemic Ac-PhScN—NH2 (SEQ ID NO:8) therapy at three different dosages (0.5, 0.05, and 0.005 micrograms per kg) with the antitumorigenic effects of 0.5 mg (500 micrograms) per kg of Ac-PHSCN—NH2 (SEQ ID NO:12) therapy using the DU 145 prostate cancer (as well as with untreated controls). The experiment involved generating subcutaneous DU 145 tumors in nude mice. More specifically, 500,000 suspended DU 145 cells were injected subcutaneously into the flanks of athymic nude mice. All mice were allowed to grow untreated DU 145 tumors in their flanks for about 8 weeks. All 3 therapies (i.e. using the three different dosages) were administered thrice-weekly by tail vein injection after the tumors became palpable. Each treatment group consisted of 8 intramuscular (flank) tumors. After 7 weeks of treatment, when the untreated tumors were very large, all mice were sacrificed at the same time, and all tumors dissected out and measured.
# [3] = test system: hmvec, normal human microvascular cells; settings: cited from earlier work
# α5β1 integrin [4] = target: T1, α5β1 integrin; assay: surface α5β1 levels on irradiated pancreatic cancer cells (immunofluorescence); assay type: cell-based; parameters: surface α5β1 levels on irradiated pancreatic cancer cells; endogenous in cells; host or cells: Panc1 and BxPC-3 pancreatic cancer cells; settings: 1 μg per ml prebound 1 hour; Panc1 2 Gy, BxPC-3 3 Gy; 1 hr and 2 hr
# Experimental: In this example, antibodies are used to measure downregulation of surface α5β1 levels on irradiated pancreatic cancer cells. Cells were prebound to 1 μg per ml Ac-PHSCN—NH2 (SEQ ID NO:12) peptide per 20,000 cells in medium containing 10% fetal bovine serum for serum for 1 hour at 37° C. The peptide-containing medium was removed, and replaced with serum-containing medium, prior to irradiation. Adherent cells were irradiated once: 2 Gy for Panc1 cells, and 3 Gy for BxPC-3 cells. One hour after irradiation, cells were quickly rinsed with phosphate-buffered saline (PBS) pH 7.4), then fixed for 15 minutes in 4% Paraformaldahyde (commercially available from Fluka) in PBS at room temperature. […] After three PBS washes, cells were incubated in anti-mouse IgG secondary antibody, conjugated with fluorosceine isothiocyanate (FITC) fluorescence marker (commercially available from Jackson ImmunoResearch Lab, Inc) at 1:200 dilution for 1 h at room temperature. […]
# Means and first standard deviations (SD) were calculated using Image-Pro Plus software over 30 areas per treatment selected randomly under 400-fold magnification, then copied and pasted on Microsoft Excel data sheets for further data analysis. All data (see FIG. 10) are expressed as mean±SD and evaluated with ANOVA Student t-test. […]
# Panc1 cells = assay: invasion of irradiated cells on SU-ECM basement membranes; assay type: cell-based; settings: 1 μg/ml peptide, single 2 Gy dose, 16 hours
# Experimental: (§1) Adherent BxPC-3 and Panc1 cells were irradiated. Panc1 cells received a single 2 Gy dose. BxPC-3 cells received a single 3 Gy dose. Approximately 45 minutes later, the cells were suspended (trypsinized), pelleted and resuspended in medium containing 10% fetal calf serum. Then, the appropriate concentration of the Ac-PHSCN—NH2 (SEQ ID NO: 12) peptide, as well as a scrambled peptide Ac-HSPNC—NH2 (SEQ ID NO:15), was added to the suspended cells to make a final peptide concentration of 1 μg/ml, and they were dropped onto the surfaces of SU-ECM (sea urchin embryo basement membranes). At the time the cells were placed on the basement membranes, one hour had elapsed since irradiation. Cells were incubated on the basement membranes for 16 hours at 37° C. in 5% CO2, prior to scoring at 400-fold magnification, under phase contrast optics. All single cells adherent to the basement membranes were scored, with respect to whether they were inside the basement membranes (invaded), or were still adherent to the exterior surface (uninvaded). Mean invasion percentages were determined with their first standard deviations for each sample.
# BxPC-3 cells = assay: as above; assay type: cell-based; settings: 1 μg/ml peptide, single 3 Gy dose, 16 hours
# Experimental: as §1
# [5] = test system: human breast and prostate cancer cell lines; settings: systemic; cited from earlier work
# end-stage human cancers = settings: cited from earlier work
# [6] = test system: DU 145 prostate cancer cells; settings: 20 ug per ml, one hour preincubation, then irradiation
compound,measurement,setting,value
"CSC[C@H](NC(=O)[C@H](CO)NC(=O)[C@H](Cc1c[nH]cn1)NC(=O)[C@@H]1CCCN1C(C)=O)C(=O)N[C@@H](CC(N)=O)C(N)=O [PHSC(S—CH3)N, Ac-PHSC(S—CH3)N—NH2] (Ac-PHSC(Me)N-NH2)","IC50 (concentration exhibiting a 50% inhibition of invasion, relative to stimulated controls)",[1]; 72 h,1 pg/mL
same,fold more potent than the unmodified PHSCN,[1],~1000 fold
same,"invasion-inhibiting potency relative to comparators, in words",[1]; listed as S-Me,many orders of magnitude more potent
CC(=O)N1CCC[C@H]1C(=O)N[C@@H](Cc1c[nH]cn1)C(=O)N[C@@H](CO)C(=O)N[C@H](CS)C(=O)N[C@@H](CC(N)=O)C(N)=O [Ac-PHScN-NH2] (Ac-PHS[dC]N-NH2),"invasion-inhibiting potency relative to comparators, in words",[1],"better than the controls, albeit not as potent as the two D-amino acid-containing peptide"
same,"IC50 (concentration exhibiting a 50% inhibition of invasion, relative to stimulated controls)",[1]; 72 h,5 pg/mL
CC(=O)N1CCC[C@H]1C(=O)N[C@H](Cc1c[nH]cn1)C(=O)N[C@@H](CO)C(=O)N[C@H](CS)C(=O)N[C@@H](CC(N)=O)C(N)=O [Ac-PhScN-NH2] (Ac-P[dH]S[dC]N-NH2),concentration range demonstrating inhibition of invasion,[1],3 to 10 pg/ml and 5.0 to 16.7 pM
same,fold lower IC50 than that for PHSCN,[1],"over 10,000 fold"
same,"invasion-inhibiting potency relative to comparators, in words",[1],orders of magnitude more potent
same,"IC50 (concentration exhibiting a 50% inhibition of invasion, relative to stimulated controls)",[1]; 72 h,0.3 pg/mL
same,competition for biotinylated PHSCN binding to the α5 integrin subunit,α5β1 integrin [2],efficient competitor
same,visible tumor tissue after treatment,"DU 145 prostate cancer; 0.5 μg/kg thrice-weekly by tail vein injection, 7 weeks of treatment",no tumor tissue was visible
same,potency as inhibitor of tumorigenesis in vivo relative to Ac-PHSCN—NH2,"DU 145 prostate cancer; mouse, in vivo",orders of magnitude more potent
"Ac-PHSC(Ac)N-NH2 [PHSC(S—COCH3)N, Ac-PHSC(S—COCH3)N—NH2]","IC50 (concentration exhibiting a 50% inhibition of invasion, relative to stimulated controls)",[1]; 72 h,0.1 pg/mL
same,fold more potent than the unmodified PHSCN,[1],"~100,000 fold"
same,"invasion-inhibiting potency relative to comparators, in words",[1]; listed as S-OAc,many orders of magnitude more potent
"Ac-PHSCN-NH2 [PHSCN, Ac-PHSCN—NH2]",potency at preventing hmvec invasion,[3],equally potent
same,α5β1 expression on irradiated cancer cells,α5β1 integrin [4],dramatically downregulated
same,"IC50 (concentration exhibiting a 50% inhibition of invasion, relative to stimulated controls)",[1]; 72 h,"30,000 pg/ml"
same,invasion after irradiation,Panc1 cells,reduced invasion to zero
same,invasion after irradiation,BxPC-3 cells,reduced invasion to zero
same,mean tumor diameter: untreated tumors fold larger relative to treated tumors,"DU 145 prostate cancer; 0.5 mg per kg thrice-weekly by tail vein injection, 7 weeks of treatment",over 6 fold
same,concentration preventing metastatic disease progression,[5],1 to 2 µM
same,dosage preventing metastatic disease progression,[5],0.5 to 50 mg/kg
same,adverse events,"end-stage human cancers; human, in vivo",without significant adverse events
same,time metastatic disease progression was prevented,end-stage human cancers; thrice-weekly systemic monotherapy,4 to 14 months
CC(=O)N1CCC[C@H]1C(=O)N[C@@H](Cc1c[nH]cn1)C(=O)N[C@@H](CO)C(=O)N[C@@H](CSSC[C@H](NC(=O)[C@H](CO)NC(=O)[C@H](Cc1c[nH]cn1)NC(=O)[C@@H]1CCCN1C(C)=O)C(=O)N[C@@H](CC(N)=O)C(N)=O)C(=O)N[C@@H](CC(N)=O)C(N)=O [(PHSCN)2] (I: Ac-PHSCN-NH2 / II: Ac-PHSCN-NH2; disulfide I:4-II:4; N-terminus and C-terminus assumed),"IC50 (concentration exhibiting a 50% inhibition of invasion, relative to stimulated controls)",[1]; 72 h,100 to 500 pg/mL
Ac-HSPNC—NH2 (Ac-HSPNC-NH2) [scrambled peptide control],invasion after irradiation,Panc1 cells,no inhibition of invasiveness
same,invasion after irradiation,BxPC-3 cells,no inhibition of invasiveness
"PHSCNGGKMAP [PHSCNGGK-MAP (8), Ac-PHSCNGGK-MAP]","IC50 (concentration exhibiting a 50% inhibition of invasion, relative to stimulated controls)",[1]; cell type not given,300 pg/mL
same,enhancement ratio (MED control / MED with dendrimer),[6],larger than one
